Data published in patent publication US20250204515A1, “Heparanase Inhibition for Graft Protection” (University of Pittsburgh - Of the Commonwealth System of …, priority 2022, published 2025).

System: HPSE1, MMP2, IL-6, IL-1β, TNF-α mRNA; IκB-α
Experiment: Real-time RT-PCR and western blotting in rat lung tissue after 4 hours of EVLP
Protocol: Graft tissues collected after 4 hours of EVLP and 2 hours after reperfusion were examined for relative mRNA expression levels of interleukin (IL)-6, IL-1, tumor necrosis factor (TNF)-α, and glyceraldehyde-3-phosphate dehydrogenase (GAPDH). Gene expression levels were normalized to GAPDH mRNA levels.
Western blotting: Total isolated proteins were extracted/resolved by 10% SDS-PAGE followed by transfer to 0.2 μm nitrocellulose membranes (Bio-Rad Laboratories, Hercules, CA, USA). Membranes were blocked with 5% non-fat milk at room temperature for 2 hours and then incubated overnight at 4° C. with the following primary antibodies: inhibitor of KB-α (IκB-α; #9242, Cell Signaling Technology, Inc., Danvers, MA) and β-actin (#A1978, Millipore-Sigma). Membranes were then incubated with either goat anti-mouse IgG (H+L) (#31430, Thermo Fisher Scientific Inc.; 1:5000) or goat anti-rabbit IgG (H+L) (#31460, Thermo Fisher Scientific Inc.; 1:3000) horseradish peroxidase-conjugated polyclonal secondary antibodies at room temperature for 2 hours. Proteins were visualized using an enhanced chemiluminescence kit (Abcam), and protein bands were imaged and analyzed using Image Lab software (Version 6.0; Bio-Rad Laboratories, Inc., Hercules, CA). The intensities of protein bands were quantitated by Image J software (National Institutes of Health, Bethesda, MD).

Substance: heparin
- IL-1β mRNA expression (lung tissue after 4-hours EVLP): increased
- IL-6 mRNA expression (lung tissue after 4-hours EVLP): increased
- TNF-α mRNA expression (lung tissue after 4-hours EVLP): increased
- pro-MMP2 gene expression (lung tissue after 4 hours of EVLP): further upregulated
- HPSE1 mRNA expression (lung tissue after 4 hours of EVLP, vs sham): not altered
